# Results as given in patent publication US8394952B2 (Vertex Pharmaceuticals Incorporated, priority 2006, dated 2013).
# Target: Plk1 (Homo sapiens, UniProt P53350)
# Test: biochemical
# Plk1, sequence (P53350 20-338): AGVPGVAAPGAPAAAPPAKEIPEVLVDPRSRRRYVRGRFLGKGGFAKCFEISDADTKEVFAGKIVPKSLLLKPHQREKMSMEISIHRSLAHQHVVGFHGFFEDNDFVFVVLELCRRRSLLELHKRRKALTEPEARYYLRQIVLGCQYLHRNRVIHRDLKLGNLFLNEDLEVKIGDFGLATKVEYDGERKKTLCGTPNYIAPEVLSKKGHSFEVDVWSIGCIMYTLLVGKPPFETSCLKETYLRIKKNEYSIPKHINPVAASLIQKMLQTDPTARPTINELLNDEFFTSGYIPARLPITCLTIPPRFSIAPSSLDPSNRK
row,Structure (SMILES),Ki [nM]
1,"COc1cc(C(=O)NCC#N)ccc1Nc1ncc2c(n1)N(C1CCCC1)CC(C)(C)C(=O)N2C [Compound I-233, N-(cyanomethyl)-4-(9-cyclopentyl-5,7,7-trimethyl-6-oxo-6,7,8,9-tetrahydro-5H-pyrimido[4,5-b][1,4]diazepin-2-ylamino)-3-methoxybenzamide]",< 10
2,"COc1cc(C(=O)NCC2CC2(F)F)ccc1Nc1ncc2c(n1)N(C1CCCC1)CC(C)(C)C(=O)N2C (stereo not drawn) [Compound I-245, 4-(9-cyclopentyl-5,7,7-trimethyl-6-oxo-6,7,8,9-tetrahydro-5H-pyrimido[4,5-b][1,4]diazepin-2-ylamino)-N-((2,2-difluorocyclopropyl)methyl)-3-methoxybenzamide]",< 10
3,"COc1cc(-c2ncc[nH]2)ccc1Nc1ncc2c(n1)N(C1CCCC1)CC(C)(C)C(=O)N2C [Compound I-250, 2-(4-(1H-imidazole-2-yl)-2-methoxyphenylamino)-9-cyclopentyl-5,7,7-trimethyl-8,9-dihydro-5H-pyrimido[4,5-b][1,4]diazepin-6(7H)-one]",< 10
4,"COc1cc(C(=O)N2CC(F)(C3CC3)C2)ccc1Nc1ncc2c(n1)N(C1CCCC1)CC(C)(C)C(=O)N2C [Compound I-208, 9-cyclopentyl-2-(4-(3-cyclopropyl-3-fluoroazetidine-1-carbonyl)-2-methoxyphenylamino)-5,7,7-trimethyl-8,9-dihydro-5H-pyrimido[4,5-b][1,4]diazepin-6(7)-one]",< 10
5,"CNC(=O)c1ccc(Nc2ncc3c(n2)N(C2CCCC2)CC(C)(C)C(=O)N3C)c(OC(C)C)c1 [Compound I-50, 4-(9-cyclopentyl-6,7,8,9-tetrahydro-5,7,7-trimethyl-6-oxo-5H-pyrimido[4,5-b][1,4]diazepin-2-ylamino)-3-isopropoxy-N-methylbenzamide]",10 to 100
6,"CN1C(=O)C(C)(C)CN(C2CCCC2)c2nc(Nc3ccc4nc[nH]c4c3)ncc21 [Compound I-43, 2-(1H-benzo[d]imidazol-6-ylamino)-9-cyclopentyl-8,9-dihydro-5,7,7-trimethyl-5H-pyrimido[4,5-b][1,4]diazepin-6(7H)-one]",10 to 100
7,"COc1cc(C(=O)NC2CCCCC2)ccc1Nc1ncc2c(n1)N(C1CCCC1)CC(C)(C)C(=O)N2C [Compound I-133, 4-(9-cyclopentyl-6,7,8,9-tetrahydro-5,7,7-trimethyl-6-oxo-5H-pyrimido[4,5-b][1,4]diazepin-2-ylamino)-N-cyclohexyl-3-methoxybenzamide]",< 10
8,"COc1cc(C(=O)NCCCN2CCN(C)CC2)ccc1Nc1ncc2c(n1)N(C1CCCC1)CC(C)(C)C(=O)N2C [Compound I-28, 4-(9-cyclopentyl-6,7,8,9-tetrahydro-5,7,7-trimethyl-6-oxo-5H-pyrimido[4,5-b][1,4]diazepin-2-ylamino)-3-methoxy-N-(3-(4-methylpiperazin-1-yl)propyl)benzamide]",< 10
9,COc1cc(C(=O)NC2CCN(CC(C)C)CC2)ccc1Nc1ncc2c(n1)N(C1CCCC1)CC(C)(C)C(=O)N2C [Compound I-70],< 10
10,"COc1cc(C(=O)NCCN2CCOCC2)ccc1Nc1ncc2c(n1)N(C1CCCC1)CC(C)(C)C(=O)N2C [Compound I-33, 4-(9-cyclopentyl-6,7,8,9-tetrahydro-5,7,7-trimethyl-6-oxo-5H-pyrimido[4,5-b][1,4]diazepin-2-ylamino)-3-methoxy-N-(2-morpholinoethyl)benzamide]",< 10
11,"CNC(=O)c1ccc(Nc2ncc3c(n2)N(C2CC(F)(F)C2)CC(C)(C)C(=O)N3C)c(OC)c1 [Compound I-170, 4-(9-(3,3-difluorocyclobutyl)-6,7,8,9-tetrahydro-5,7,7-trimethyl-6-oxo-5H-pyrimido[4,5-b][1,4]diazepin-2-ylamino)-3-methoxy-N-methylbenzamide]",< 10
12,"COc1cc(C(=O)NC2CCN(C)CC2)ccc1Nc1ncc2c(n1)N(C1CCCC1)CC(C)C(=O)N2C (stereo not drawn) [Compound I-12, 4-(9-cyclopentyl-6,7,8,9-tetrahydro-5,7-dimethyl-6-oxo-5H-pyrimido[4,5-b][1,4]diazepin-2-ylamino)-3-methoxy-N-(1-methylpiperidin-4-yl)benzamide]",< 10
13,"COc1cc(C(=O)NC2CC2)ccc1Nc1ncc2c(n1)N(C1CCCC1)CC1(CC1)C(=O)N2C [Compound I-178, 4-(9′-cyclopentyl-5′-methyl-6′-oxo-5′,6′,8′,9′-tetrahydrospiro[cyclopropane-1,7′-pyrimido[4,5-b][1,4]diazepine]-2′-ylamino)-N-cyclopropyl-3-methoxybenzamide]",< 10
14,"COc1cc(C(=O)NCc2cccnc2)ccc1Nc1ncc2c(n1)N(C1CCCC1)CC1(CC1)C(=O)N2C [Compound I-249, 4-(9′-cyclopentyl-5′-methyl-6′-oxo-5′,6′,8′,9′-tetrahydrospiro[cyclopropane-1,7′-pyrimido[4,5-b][1,4]diazepine]-2′-ylamino)-3-methoxy-N-(pyridin-3-ylmethyl)benzamide]",< 10
15,"COc1cc(C(=O)N[C@H]2CCOC2)ccc1Nc1ncc2c(n1)N(C1CCCC1)CC(C)(C)C(=O)N2C [Compound I-172, 4-(9-cyclopentyl-6,7,8,9-tetrahydro-5,7,7-trimethyl-6-oxo-5H-pyrimido[4,5-b][1,4]diazepin-2-ylamino)-N—((S)-tetrahydrofuran-3-yl)-3-methoxybenzamide]",< 10
16,"CN1C(=O)C(C)(C)CN(C2CCCC2)c2nc(Nc3ccc4ncsc4c3)ncc21 [Compound I-44, 2-(benzo[d]thiazol-6-ylamino)-9-cyclopentyl-8,9-dihydro-5,7,7-trimethyl-5H-pyrimido[4,5-b][1,4]diazepin-6(7H)-one]",10 to 100
17,"COc1cc(C(=O)NC(C)(C)C)ccc1Nc1ncc2c(n1)N(C1CCCC1)CC(C)(C)C(=O)N2C [Compound I-130, 4-(9-cyclopentyl-6,7,8,9-tetrahydro-5,7,7-trimethyl-6-oxo-5H-pyrimido[4,5-b][1,4]diazepin-2-ylamino)-N-tert-butyl-3-methoxybenzamide]",< 10
18,"COc1cc(C(=O)NCCC(C)O)ccc1Nc1ncc2c(n1)N(C1CCCC1)CC(C)(C)C(=O)N2C (stereo not drawn) [Compound I-243, 4-(9-cyclopentyl-5,7,7-trimethyl-6-oxo-6,7,8,9-tetrahydro-5H-pyrimido[4,5-b][1,4]diazepin-2-ylamino)-N-(3-hydroxybutyl)-3-methoxybenzamide]",< 10
19,"COc1cc(C(=O)NC2CC(F)(F)C2)ccc1Nc1ncc2c(n1)N(C1CCCC1)CC1(CC1)C(=O)N2C [Compound I-269, 4-(9′-cyclopentyl-5′-methyl-6′-oxo-5′,6′,8′,9′-tetrahydrospiro[cyclopropane-1,7′-pyrimido[4,5-b][1,4]diazepine]-2′-ylamino)-N-(3,3-difluorocyclobutyl)-3-methoxybenzamide]",< 10
20,"COc1cc(C(=O)NC2CC(F)(F)C2)ccc1Nc1ncc2c(n1)N(C1CCCC1)CC(C)(C)C(=O)N2C [Compound I-166, 4-(9-cyclopentyl-6,7,8,9-tetrahydro-5,7,7-trimethyl-6-oxo-5H-pyrimido[4,5-b][1,4]diazepin-2-ylamino)-N-(3,3-difluorocyclobutyl)-3-methoxybenzamide]",< 10
21,"CNC(=O)c1ccc(Nc2ncc3c(n2)N(C2CCCC2)C[C@H](C)C(=O)N3C)c(OC)c1 [Compound I-17, 4-((S)-9-cyclopentyl-6,7,8,9-tetrahydro-5,7-dimethyl-6-oxo-5H-pyrimido[4,5-b][1,4]diazepin-2-ylamino)-3-methoxy-N-methylbenzamide]",< 10
22,"CNC(=O)c1ccc(Nc2ncc3c(n2)N(Cc2ccccc2)CC(C)(C)C(=O)N3C)c(OC)c1 [Compound I-122, 4-(9-benzyl-6,7,8,9-tetrahydro-5,7,7-trimethyl-6-oxo-5H-pyrimido[4,5-b][1,4]diazepin-2-ylamino)-3-methoxy-N-methylbenzamide]",10 to 100
23,"CN1C(=O)C(C)(C)CN(C2CCCC2)c2nc(Nc3ccc4c(c3)CCN4S(C)(=O)=O)ncc21 [Compound I-138, 9-Cyclopentyl-2-(1-methanesulfonyl-2,3-dihydro-1H-indol-5-ylamino)-5,7,7-trimethyl-5,7,8,9-tetrahydro-pyrimido[4,5-b][1,4]diazepin-6-one]",10 to 100
24,"CNC(=O)c1ccc(Nc2ncc3c(n2)N(C2CCCC2)CCc2nncn2-3)c(OC)c1 [Compound I-42, 4-(6-Cyclopentyl-5,6-dihydro-4H-2,3,6,7,9,10b-hexaaza-benzo[e]azulen-8-ylamino)-3-methoxy-N-methylbenzamide]",10 to 100
25,"Cc1cc(O)n(-c2ccc(Nc3ncc4c(n3)N(C3CCCC3)CC(C)(C)C(=O)N4C)cc2)n1 [Compound I-98, 2-(4-(5-hydroxy-3-methyl-1H-pyrazol-1-yl)phenylamino)-9-cyclopentyl-8,9-dihydro-5,7,7-trimethyl-5H-pyrimido[4,5-b][1,4]diazepin-6(7H)-one]",10 to 100
26,CCCN1CCC(NC(=O)c2ccc(Nc3ncc4c(n3)N(C3CCCC3)CC(C)(C)C(=O)N4C)c(OC)c2)CC1 [Compound I-69],< 10
27,"COCCCNC(=O)c1ccc(Nc2ncc3c(n2)N(C2CCCC2)CC(C)(C)C(=O)N3C)c(OC)c1 [Compound I-198, 4-(9-cyclopentyl-5,7,7-trimethyl-6-oxo-6,7,8,9-tetrahydro-5H-pyrimido[4,5-b][1,4]diazepin-2-ylamino)-3-methoxy-N-(3-methoxypropyl)benzamide]",< 10
28,"CNC(=O)c1ccc(Nc2ncc3c(n2)N(CC2CC2(F)F)CC(C)(C)C(=O)N3C)c(OC)c1 (stereo not drawn) [Compound I-169, 4-(9-((2,2-difluorocyclopropyl)methyl)-6,7,8,9-tetrahydro-5,7,7-trimethyl-6-oxo-5H-pyrimido[4,5-b][1,4]diazepin-2-ylamino)-3-methoxy-N-methylbenzamide]",< 10
29,"COc1cc(C(=O)N[C@H](CO)C(C)C)ccc1Nc1ncc2c(n1)N(C1CCCC1)CC(C)(C)C(=O)N2C [Compound I-239, (S)-4-(9-cyclopentyl-5,7,7-trimethyl-6-oxo-6,7,8,9-tetrahydro-5H-pyrimido[4,5-b][1,4]diazepin-2-ylamino)-N-(1-hydroxy-3-methylbutan-2-yl)-3-methoxybenzamide]",< 10
30,"CNC(=O)c1ccc(Nc2ncc3c(n2)N(C2CC4CCC2C4)CC(C)(C)C(=O)N3C)c(OC)c1 (stereo not drawn) [Compound I-191, 4-(9-(bicyclo[2.2.1]heptan-2-yl)-5,7,7-trimethyl-6-oxo-6,7,8,9-tetrahydro-5H-pyrimido[4,5-b][1,4]diazepin-2-ylamino)-3-methoxy-N-methylbenzamide]",< 10
